PubChem BioAssay (NCI)
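Where inhibition never reached the appropriate level, the endpoint shown equals the highest concentration tested. Otherwise, values were interpolated linearly from a five-concentration, 48-hour dose response in 96-well plates. At the GI50, growth is halved. TGI is the concentration that stops growth completely.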

How the values were obtained:
Test in all cases: DTP human tumour cell line panel, 48 h
HCT-15 colon = tested on: HCT-15 colon
MDA-MB-435 = tested on: MDA-MB-435
SF-539 CNS = tested on: SF-539 CNS
UACC-257 melanoma = tested on: UACC-257 melanoma
BT-549 breast = tested on: BT-549 breast
K-562 leukemia = tested on: K-562 leukemia
NCI/ADR-RES ovarian = tested on: NCI/ADR-RES ovarian
SK-MEL-2 melanoma = tested on: SK-MEL-2 melanoma
A498 renal = tested on: A498 renal
SNB-19 CNS = tested on: SNB-19 CNS
RXF 393 renal = tested on: RXF 393 renal
NCI-H522 lung = tested on: NCI-H522 lung
EKVX NSCLC = tested on: EKVX NSCLC
MALME-3M melanoma = tested on: MALME-3M melanoma
A549 NSCLC = tested on: A549 NSCLC
OVCAR-4 ovarian = tested on: OVCAR-4 ovarian
SR leukemia = tested on: SR leukemia
SK-OV-3 ovarian = tested on: SK-OV-3 ovarian
HCT-116 colon = tested on: HCT-116 colon
CAKI-1 renal = tested on: CAKI-1 renal
SF-295 CNS = tested on: SF-295 CNS
HOP-62 NSCLC = tested on: HOP-62 NSCLC
HL-60(TB) leukemia = tested on: HL-60(TB) leukemia
RPMI-8226 leukemia = tested on: RPMI-8226 leukemia
UO-31 renal = tested on: UO-31 renal
OVCAR-3 ovarian = tested on: OVCAR-3 ovarian
SF-268 CNS = tested on: SF-268 CNS
DU-145 prostate = tested on: DU-145 prostate
PC-3 prostate = tested on: PC-3 prostate
SN12C renal = tested on: SN12C renal
KM12 colon = tested on: KM12 colon
NCI-H226 lung = tested on: NCI-H226 lung
TK-10 renal = tested on: TK-10 renal
LOX IMVI melanoma = tested on: LOX IMVI melanoma
HT29 colon = tested on: HT29 colon
MOLT-4 leukemia = tested on: MOLT-4 leukemia
T-47D breast = tested on: T-47D breast
COLO 205 colon = tested on: COLO 205 colon
NCI-H23 lung = tested on: NCI-H23 lung
SK-MEL-5 melanoma = tested on: SK-MEL-5 melanoma
HCC-2998 colon = tested on: HCC-2998 colon
IGROV1 ovarian = tested on: IGROV1 ovarian
NCI-H460 lung = tested on: NCI-H460 lung
SNB-75 CNS = tested on: SNB-75 CNS
SK-MEL-28 melanoma = tested on: SK-MEL-28 melanoma
OVCAR-5 ovarian = tested on: OVCAR-5 ovarian
SW-620 colon = tested on: SW-620 colon
786-0 renal = tested on: 786-0 renal
UACC-62 melanoma = tested on: UACC-62 melanoma
MDA-MB-231 breast = tested on: MDA-MB-231 breast
HOP-92 NSCLC = tested on: HOP-92 NSCLC
HS 578T breast = tested on: HS 578T breast
ACHN renal = tested on: ACHN renal
CCRF-CEM leukemia = tested on: CCRF-CEM leukemia
U251 CNS = tested on: U251 CNS
MCF7 breast = tested on: MCF7 breast

Compound: NC(=O)CCC(NC(=O)OCc1ccccc1)C(=O)OCC(=O)c1ccccc1 (configuration not stated)
- GI50 (HCT-15 colon): > 100 µM
- TGI (HCT-15 colon): > 100 µM
- GI50 (MDA-MB-435): > 100 µM
- TGI (MDA-MB-435): > 100 µM
- GI50 (SF-539 CNS): > 100 µM
- TGI (SF-539 CNS): > 100 µM
- GI50 (UACC-257 melanoma): > 100 µM
- TGI (UACC-257 melanoma): > 100 µM
- GI50 (BT-549 breast): > 100 µM
- TGI (BT-549 breast): > 100 µM
- GI50 (K-562 leukemia): > 100 µM
- TGI (K-562 leukemia): > 100 µM
- GI50 (NCI/ADR-RES ovarian): > 100 µM
- TGI (NCI/ADR-RES ovarian): > 100 µM
- GI50 (SK-MEL-2 melanoma): > 100 µM
- TGI (SK-MEL-2 melanoma): > 100 µM
- GI50 (A498 renal): > 100 µM
- TGI (A498 renal): > 100 µM
- GI50 (SNB-19 CNS): > 100 µM
- TGI (SNB-19 CNS): > 100 µM
- GI50 (RXF 393 renal): > 100 µM
- TGI (RXF 393 renal): > 100 µM
- GI50 (NCI-H522 lung): > 100 µM
- TGI (NCI-H522 lung): > 100 µM
- GI50 (EKVX NSCLC): > 100 µM
- TGI (EKVX NSCLC): > 100 µM
- GI50 (MALME-3M melanoma): > 100 µM
- TGI (MALME-3M melanoma): > 100 µM
- GI50 (A549 NSCLC): > 100 µM
- TGI (A549 NSCLC): > 100 µM
- GI50 (OVCAR-4 ovarian): > 100 µM
- TGI (OVCAR-4 ovarian): > 100 µM
- GI50 (SR leukemia): > 100 µM
- TGI (SR leukemia): > 100 µM
- GI50 (SK-OV-3 ovarian): > 100 µM
- TGI (SK-OV-3 ovarian): > 100 µM
- GI50 (HCT-116 colon): > 100 µM
- TGI (HCT-116 colon): > 100 µM
- GI50 (CAKI-1 renal): > 100 µM
- TGI (CAKI-1 renal): > 100 µM
- GI50 (SF-295 CNS): > 100 µM
- TGI (SF-295 CNS): > 100 µM
- GI50 (HOP-62 NSCLC): > 100 µM
- TGI (HOP-62 NSCLC): > 100 µM
- GI50 (HL-60(TB) leukemia): > 100 µM
- TGI (HL-60(TB) leukemia): > 100 µM
- GI50 (RPMI-8226 leukemia): > 100 µM
- TGI (RPMI-8226 leukemia): > 100 µM
- GI50 (UO-31 renal): > 100 µM
- TGI (UO-31 renal): > 100 µM
- GI50 (OVCAR-3 ovarian): > 100 µM
- TGI (OVCAR-3 ovarian): > 100 µM
- GI50 (SF-268 CNS): > 100 µM
- TGI (SF-268 CNS): > 100 µM
- GI50 (DU-145 prostate): > 100 µM
- TGI (DU-145 prostate): > 100 µM
- GI50 (PC-3 prostate): > 100 µM
- TGI (PC-3 prostate): > 100 µM
- GI50 (SN12C renal): > 100 µM
- TGI (SN12C renal): > 100 µM
- GI50 (KM12 colon): > 100 µM
- TGI (KM12 colon): > 100 µM
- GI50 (NCI-H226 lung): > 100 µM
- TGI (NCI-H226 lung): > 100 µM
- GI50 (TK-10 renal): > 100 µM
- TGI (TK-10 renal): > 100 µM
- GI50 (LOX IMVI melanoma): > 100 µM
- TGI (LOX IMVI melanoma): > 100 µM
- GI50 (HT29 colon): > 100 µM
- TGI (HT29 colon): > 100 µM
- GI50 (MOLT-4 leukemia): > 100 µM
- TGI (MOLT-4 leukemia): > 100 µM
- GI50 (T-47D breast): > 100 µM
- TGI (T-47D breast): > 100 µM
- GI50 (COLO 205 colon): > 100 µM
- TGI (COLO 205 colon): > 100 µM
- GI50 (NCI-H23 lung): > 100 µM
- TGI (NCI-H23 lung): > 100 µM
- GI50 (SK-MEL-5 melanoma): > 100 µM
- TGI (SK-MEL-5 melanoma): > 100 µM
- GI50 (HCC-2998 colon): 65.6 µM
- TGI (HCC-2998 colon): > 100 µM
- GI50 (IGROV1 ovarian): > 100 µM
- TGI (IGROV1 ovarian): > 100 µM
- GI50 (NCI-H460 lung): > 100 µM
- TGI (NCI-H460 lung): > 100 µM
- GI50 (SNB-75 CNS): > 100 µM
- TGI (SNB-75 CNS): > 100 µM
- GI50 (SK-MEL-28 melanoma): 43.9 µM
- TGI (SK-MEL-28 melanoma): > 100 µM
- GI50 (OVCAR-5 ovarian): > 100 µM
- TGI (OVCAR-5 ovarian): > 100 µM
- GI50 (SW-620 colon): > 100 µM
- TGI (SW-620 colon): > 100 µM
- GI50 (786-0 renal): > 100 µM
- TGI (786-0 renal): > 100 µM
- GI50 (UACC-62 melanoma): > 100 µM
- TGI (UACC-62 melanoma): > 100 µM
- GI50 (MDA-MB-231 breast): > 100 µM
- TGI (MDA-MB-231 breast): > 100 µM
- GI50 (HOP-92 NSCLC): > 100 µM
- TGI (HOP-92 NSCLC): > 100 µM
- GI50 (HS 578T breast): > 100 µM
- TGI (HS 578T breast): > 100 µM
- GI50 (ACHN renal): > 100 µM
- TGI (ACHN renal): > 100 µM
- GI50 (CCRF-CEM leukemia): > 100 µM
- TGI (CCRF-CEM leukemia): > 100 µM
- GI50 (U251 CNS): > 100 µM
- TGI (U251 CNS): > 100 µM
- GI50 (MCF7 breast): > 100 µM
- TGI (MCF7 breast): > 100 µM
